Laboratory results: paper PMC7577563 (Journal of medicinal chemistry, 2019)
Square brackets hold non-standard residues; d marks the D form. Peptide text beside a SMILES is read from it. Tyr(SO2F) = N[C@@H](Cc1ccc(OS(=O)(=O)F)cc1)C(=O)O; NMeA = CN[C@@H](C)C(=O)O

Assays:
Plasma stability = type: in vitro ADME; details: mouse plasma

Compound | Aqueous stability at physiological pH (Chemical) | Plasma stability (Plasma stability)
CN[C@@H](C)C(=O)N[C@@H](Cc1ccc(OS(=O)(=O)F)cc1)C(=O)N1CCC[C@H]1C(=O)N[C@@H](Cc1ccccc1)C(N)=O [Compound 4] (H-[NMeA][Tyr(SO2F)]PF-NH2) | the most stable | –
CN[C@@H](C)C(=O)N[C@@H](CNCc1ccc(S(=O)(=O)F)cc1)C(=O)N1CCC[C@H]1C(=O)N[C@@H](Cc1ccccc1)C(N)=O [Compound 3] | intermediate stability | –
CN[C@@H](C)C(=O)N[C@@H](CNCc1ccc(S(=O)(=O)F)cc1)C(=O)N1CCC[C@H]1C(=O)N[C@@H]1CCc2c(F)cccc21 [Compound 11, 4-((((S)-3-((S)-2-(((R)-4-fluoro-2,3-dihydro-1H-inden-1-yl)carbamoyl)pyrrolidin-1-yl)-2-((S)-2(methylamino)propanamido)-3-oxopropyl)amino)methyl)benzenesulfonyl fluoride] | – | completely degraded in plasma after 40 minutes
CN[C@@H](C)C(=O)N[C@@H](CNC(=O)c1ccc(S(=O)(=O)F)cc1)C(=O)N1CCC[C@H]1C(=O)N[C@@H](Cc1ccccc1)C(N)=O [Compound 2] | the least stable | –
